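Interpolation was linear, between the two tested concentrations surrounding the appropriate level; five concentrations were tested over 48 hours in 96-well plates. Abbreviation: GI50, concentration required for 50% inhibition of growth.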 Activity calls are given as the source filed them. No stated cut-off is given here; in the data, active = GI50 up to about 1.1 µM and inactive = higher.
How the values were obtained:
Assay in all cases: growth of human tumour cells (NCI), 48 h
HOP-18 = tested on: HOP-18
K562 = tested on: K562
LOX IMVI = tested on: LOX IMVI
M14 = tested on: M14
NCI-H226 = tested on: NCI-H226
NCI-H23 = tested on: NCI-H23
OVCAR-4 = tested on: OVCAR-4
SK-MEL-2 = tested on: SK-MEL-2
XF498 = tested on: XF498
BT-549 = tested on: BT-549
DU-145 = tested on: DU-145
HCT-15 = tested on: HCT-15
Hs-578T = tested on: Hs-578T
MCF7 = tested on: MCF7
MDA-MB-435 = tested on: MDA-MB-435
PC-3 = tested on: PC-3
SF-539 = tested on: SF-539
SR = tested on: SR
T47D = tested on: T47D
NCI/ADR-RES = tested on: NCI/ADR-RES

Row | Compound | GI50 (HOP-18) | GI50 (K562) | GI50 (LOX IMVI) | GI50 (M14) | GI50 (NCI-H226) | GI50 (NCI-H23) | GI50 (OVCAR-4) | GI50 (SK-MEL-2) | GI50 (XF498) | GI50 (BT-549) | GI50 (DU-145) | GI50 (HCT-15) [µM] | GI50 (Hs-578T) | GI50 (MCF7) | GI50 (MDA-MB-435) | GI50 (PC-3) | GI50 (SF-539) | GI50 (SR) | GI50 (T47D) | GI50 (NCI/ADR-RES)
1 | COc1ccc(C(O)/C(=N\NC(N)=S)c2nc3ccc([N+](=O)[O-])cc3nc2O)cc1OC (stereo unspecified) | 44.2 µM (inactive) | > 100 µM (inactive) | > 100 µM (inactive) | > 100 µM (inactive) | > 100 µM (inactive) | > 100 µM (inactive) | > 100 µM (inactive) | > 100 µM (inactive) | > 100 µM (inactive) | – | – | – | – | – | – | – | – | – | – | –
2 | CCCc1c(-c2ccccc2)[nH]c2ccccc2c1=O | – | 20.8 µM (inactive) | 23.9 µM (inactive) | 36.2 µM (inactive) | > 100 µM (inactive) | > 100 µM (inactive) | > 100 µM (inactive) | 27.2 µM (inactive) | – | 40.5 µM (inactive) | > 100 µM (inactive) | 27.4 | > 100 µM (inactive) | 36.7 µM (inactive) | 37.3 µM (inactive) | > 100 µM (inactive) | 33.8 µM (inactive) | > 100 µM (inactive) | 25.9 µM (inactive) | –
3 | C/C(=C\c1ccccc1)C(=O)CCN1CCOCC1 | 18.3 µM (inactive) | 30.1 µM (inactive) | 16.9 µM (inactive) | – | > 46.1 µM (inactive) | 16.9 µM (inactive) | 18 µM (inactive) | 27.2 µM (inactive) | 18.3 µM (inactive) | – | – | 16.3 | – | 7.87 µM (inactive) | – | – | 18.3 µM (inactive) | – | – | 21.8 µM (inactive)
4 | O=C(N[C@H]1c2ccsc2/C(=N/O)[C@H]1O)C(F)(F)F | – | > 100 µM (inactive) | > 100 µM (inactive) | > 100 µM (inactive) | > 100 µM (inactive) | > 100 µM (inactive) | – | > 100 µM (inactive) | – | > 100 µM (inactive) | > 100 µM (inactive) | > 100 | > 100 µM (inactive) | > 100 µM (inactive) | > 100 µM (inactive) | > 100 µM (inactive) | > 100 µM (inactive) | > 100 µM (inactive) | > 100 µM (inactive) | > 100 µM (inactive)
5 | Cc1cc(C)c(NC(=O)/C=C/c2ccccc2)c(C)c1 | – | 32.6 µM (inactive) | – | > 100 µM (inactive) | > 100 µM (inactive) | > 100 µM (inactive) | 94.6 µM (inactive) | > 100 µM (inactive) | – | > 100 µM (inactive) | – | 78 | 57.7 µM (inactive) | > 100 µM (inactive) | > 100 µM (inactive) | > 100 µM (inactive) | 59 µM (inactive) | 7.28 µM (inactive) | – | 29.3 µM (inactive)
6 | C#CC(O)(c1nc2ccccc2s1)c1nc2ccccc2s1 | – | 45.7 µM (inactive) | 17.8 µM (inactive) | 15.5 µM (inactive) | – | 20.3 µM (inactive) | 25.8 µM (inactive) | 16.7 µM (inactive) | – | 16.6 µM (inactive) | 26.4 µM (inactive) | 20.2 | 36.4 µM (inactive) | 22.2 µM (inactive) | 23.1 µM (inactive) | 19 µM (inactive) | 17.4 µM (inactive) | – | 13.8 µM (inactive) | 26.2 µM (inactive)
7 | C[C@]12CC[C@H]3[C@@H](CC=C4C[C@@H](O)CC[C@@]43C)[C@@H]1C/C(=C\c1ccc([N+](=O)[O-])cc1)[C@@H]2O | – | 5.68 µM (inactive) | 18.8 µM (inactive) | 22.7 µM (inactive) | 16.8 µM (inactive) | 9.98 µM (inactive) | < 0.01 µM (active) | 19.8 µM (inactive) | – | 14.6 µM (inactive) | 11 µM (inactive) | 10.9 | 16.9 µM (inactive) | 6.71 µM (inactive) | 22.5 µM (inactive) | 14.3 µM (inactive) | 17.1 µM (inactive) | 8.41 µM (inactive) | 4.38 µM (inactive) | 12.5 µM (inactive)
8 | c1ccc(Nc2nnc(-c3nsc4ccccc34)o2)cc1 | > 100 µM (inactive) | 59.6 µM (inactive) | > 100 µM (inactive) | > 100 µM (inactive) | – | 91.4 µM (inactive) | 41 µM (inactive) | > 100 µM (inactive) | – | – | – | > 100 | – | – | – | – | > 100 µM (inactive) | > 100 µM (inactive) | – | –
9 | CSCSCC(CO)NC(=O)/C(C)=C\c1c(C)[nH]c(=O)[nH]c1=O (stereo unspecified) | > 250 µM (inactive) | > 250 µM (inactive) | > 250 µM (inactive) | – | > 250 µM (inactive) | > 250 µM (inactive) | > 250 µM (inactive) | > 250 µM (inactive) | > 64.6 µM (inactive) | – | – | 225 | – | > 250 µM (inactive) | – | – | > 250 µM (inactive) | – | – | > 250 µM (inactive)
10 | C1=C2C3=[N+](CCCCC3)CC2Cc2ccsc21 (stereo unspecified) | – | > 100 µM (inactive) | 84.7 µM (inactive) | > 100 µM (inactive) | > 100 µM (inactive) | 49.9 µM (inactive) | 43.4 µM (inactive) | > 100 µM (inactive) | – | 51.2 µM (inactive) | > 100 µM (inactive) | > 100 | > 100 µM (inactive) | 50.1 µM (inactive) | 60.3 µM (inactive) | 39.5 µM (inactive) | – | – | 63.5 µM (inactive) | > 100 µM (inactive)
11 | C=CC1(c2ccc3ccccc3c2)OCC(CC)O1 (stereo unspecified) | – | 13.9 µM (inactive) | 21.8 µM (inactive) | 61.1 µM (inactive) | 25.5 µM (inactive) | 32.3 µM (inactive) | 55.6 µM (inactive) | 15.6 µM (inactive) | – | – | > 100 µM (inactive) | 45.6 | 22.4 µM (inactive) | 55 µM (inactive) | 63.4 µM (inactive) | 28 µM (inactive) | – | 19.8 µM (inactive) | 35 µM (inactive) | > 100 µM (inactive)
12 | COC1=C(OC)C(=O)c2cc(SC)c(=O)c(SC)cc2C1=O | 20.2 µM (inactive) | 15.9 µM (inactive) | 4.48 µM (inactive) | 17.2 µM (inactive) | 13.5 µM (inactive) | 5.75 µM (inactive) | 12.2 µM (inactive) | 3.85 µM (inactive) | 5.14 µM (inactive) | – | – | 25.1 | – | – | – | – | 12.1 µM (inactive) | 4.33 µM (inactive) | – | –
13 | COc1cc2c(cc1OC)C1Cc3cc(OC)c(OC)cc3C(C2)O1 | – | 46.7 µM (inactive) | > 100 µM (inactive) | > 100 µM (inactive) | > 100 µM (inactive) | > 100 µM (inactive) | > 100 µM (inactive) | > 100 µM (inactive) | – | > 100 µM (inactive) | > 100 µM (inactive) | – | – | > 100 µM (inactive) | > 100 µM (inactive) | > 100 µM (inactive) | > 100 µM (inactive) | – | 58.5 µM (inactive) | > 100 µM (inactive)
14 | CC(=O)Oc1ccc(C2COc3cc(OC(C)=O)c(OC(C)=O)cc3C2)cc1 (stereo unspecified) | 12.8 µM (inactive) | 16.3 µM (inactive) | > 37.1 µM (inactive) | – | 20.6 µM (inactive) | 16 µM (inactive) | 14.4 µM (inactive) | 14.7 µM (inactive) | 12.2 µM (inactive) | – | – | 18.5 | – | 19 µM (inactive) | – | – | 11.7 µM (inactive) | – | – | 20.8 µM (inactive)
15 | CCCCn1cc[n+](-c2nc3ccccc3n2C)c1 | > 100 µM (inactive) | > 100 µM (inactive) | > 100 µM (inactive) | > 100 µM (inactive) | > 100 µM (inactive) | > 100 µM (inactive) | > 100 µM (inactive) | > 100 µM (inactive) | – | – | – | > 100 | – | – | – | – | > 100 µM (inactive) | > 100 µM (inactive) | – | –
16 | N#CCCN(c1ccc(/C=N/c2cccc([N+](=O)[O-])c2)cc1)S(=O)(=O)c1ccccc1 | – | > 100 µM (inactive) | – | > 100 µM (inactive) | 56.9 µM (inactive) | > 100 µM (inactive) | > 100 µM (inactive) | > 100 µM (inactive) | > 100 µM (inactive) | – | – | – | – | – | – | – | > 100 µM (inactive) | > 100 µM (inactive) | – | –
17 | CC(C)OP(=O)(OC(C)C)c1ncn(-c2ccc([N+](=O)[O-])cc2)n1 | – | > 100 µM (inactive) | – | > 100 µM (inactive) | > 100 µM (inactive) | > 100 µM (inactive) | > 100 µM (inactive) | > 100 µM (inactive) | > 100 µM (inactive) | – | – | > 100 | – | – | – | – | > 100 µM (inactive) | > 100 µM (inactive) | – | –
18 | ClCCCN1CCCCC1CCl (stereo unspecified) | > 100 µM (inactive) | > 100 µM (inactive) | > 100 µM (inactive) | > 100 µM (inactive) | – | 65.3 µM (inactive) | > 100 µM (inactive) | > 100 µM (inactive) | – | – | – | > 100 | – | – | – | – | > 100 µM (inactive) | 24.8 µM (inactive) | – | –
19 | CCOC(=O)C1=C(c2ccccc2)N(C(C)=O)Cc2ccccc21 | 28.1 µM (inactive) | 14.5 µM (inactive) | 16 µM (inactive) | 18.5 µM (inactive) | 14.9 µM (inactive) | 12.6 µM (inactive) | 16.7 µM (inactive) | 17.5 µM (inactive) | 11.9 µM (inactive) | – | – | 21.4 | – | – | – | – | 16.3 µM (inactive) | 9.73 µM (inactive) | – | –
20 | CN1CCc2[nH]c3ccccc3c2C1 | > 100 µM (inactive) | > 100 µM (inactive) | > 100 µM (inactive) | – | > 100 µM (inactive) | > 100 µM (inactive) | > 100 µM (inactive) | > 100 µM (inactive) | > 100 µM (inactive) | – | – | > 100 | – | > 100 µM (inactive) | – | – | > 100 µM (inactive) | – | – | > 100 µM (inactive)

Source: ChEMBL document CHEMBL1201862, “PubChem BioAssay data set” (2004)
